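Test compounds were applied to cells in 96-well plates for 48 hours at 5 doses. At the GI50, growth is halved.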 Active and inactive are the calls of the source. Cut-off read from the data, not from the text of the source: active = GI50 up to about 1.1 µM and inactive = higher.
Assays:
Test in all cases: inhibition of tumour cell growth, NCI panel, 48 h
DMS-273 = tested on: DMS-273
HCT-116 = tested on: HCT-116
IGROV-1 = tested on: IGROV-1
KM-20L2 = tested on: KM-20L2
M19-MEL = tested on: M19-MEL
NCI-H226 = tested on: NCI-H226
RPMI-8226 = tested on: RPMI-8226
SK-OV-3 = tested on: SK-OV-3
SNB-78 = tested on: SNB-78
XF498 = tested on: XF498
NCI-H522 = tested on: NCI-H522
BT-549 = tested on: BT-549
DU-145 = tested on: DU-145
Hs-578T = tested on: Hs-578T
M14 = tested on: M14
MDA-MB-435 = tested on: MDA-MB-435
PC-3 = tested on: PC-3
SR = tested on: SR
T47D = tested on: T47D
TK-10 = tested on: TK-10

COc1ccc(O)c(C#N)c1C#N.COc1ccc(OC)c(C#N)c1C#N
GI50 (DMS-273): > 100 µM (inactive)
GI50 (HCT-116): > 100 µM (inactive)
GI50 (IGROV-1): > 100 µM (inactive)
GI50 (KM-20L2): > 100 µM (inactive)
GI50 (M19-MEL): > 100 µM (inactive)
GI50 (NCI-H226): > 100 µM (inactive)
GI50 (RPMI-8226): > 100 µM (inactive)
GI50 (SK-OV-3): > 100 µM (inactive)
GI50 (SNB-78): > 100 µM (inactive)
GI50 (XF498): > 100 µM (inactive)

O=C(O)c1ccccc1/N=C/c1ccc(N(CCCl)CCCl)cc1
GI50 (DMS-273): 81.1 µM (inactive)
GI50 (HCT-116): > 100 µM (inactive)
GI50 (IGROV-1): > 100 µM (inactive)
GI50 (KM-20L2): > 100 µM (inactive)
GI50 (M19-MEL): > 100 µM (inactive)
GI50 (NCI-H522): > 100 µM (inactive)
GI50 (RPMI-8226): > 100 µM (inactive)
GI50 (SK-OV-3): > 91.2 µM (inactive)
GI50 (SNB-78): > 82.8 µM (inactive)
GI50 (XF498): 0.01 µM (active)

CCOC(=O)Cn1c(=O)ccn(COCCO)c1=O
GI50 (BT-549): > 100 µM (inactive)
GI50 (DU-145): > 100 µM (inactive)
GI50 (Hs-578T): > 100 µM (inactive)
GI50 (IGROV-1): > 100 µM (inactive)
GI50 (M14): > 100 µM (inactive)
GI50 (MDA-MB-435): > 100 µM (inactive)
GI50 (NCI-H522): > 100 µM (inactive)
GI50 (PC-3): > 100 µM (inactive)
GI50 (RPMI-8226): > 100 µM (inactive)
GI50 (SR): > 10 µM (inactive)
GI50 (T47D): > 100 µM (inactive)
GI50 (TK-10): > 100 µM (inactive)

CO/N=C1\CC(NC(=O)C(F)(F)F)c2ccsc21 (stereo not drawn)
GI50 (BT-549): > 100 µM (inactive)
GI50 (DU-145): > 100 µM (inactive)
GI50 (HCT-116): > 100 µM (inactive)
GI50 (Hs-578T): > 100 µM (inactive)
GI50 (IGROV-1): > 100 µM (inactive)
GI50 (M14): > 100 µM (inactive)
GI50 (MDA-MB-435): > 100 µM (inactive)
GI50 (NCI-H226): > 100 µM (inactive)
GI50 (PC-3): > 100 µM (inactive)
GI50 (SK-OV-3): > 100 µM (inactive)
GI50 (SR): > 100 µM (inactive)
GI50 (T47D): > 100 µM (inactive)
GI50 (TK-10): > 100 µM (inactive)

CC(C)=CC1C(C(=O)O)C1(C)C (stereo not drawn) [CHRYSANTHEMIC ACID]
GI50 (DMS-273): > 750 µM (inactive)
GI50 (HCT-116): > 750 µM (inactive)
GI50 (IGROV-1): > 750 µM (inactive)
GI50 (KM-20L2): > 750 µM (inactive)
GI50 (M19-MEL): > 750 µM (inactive)
GI50 (NCI-H226): 75 µM (inactive)
GI50 (NCI-H522): > 750 µM (inactive)
GI50 (RPMI-8226): > 750 µM (inactive)
GI50 (SK-OV-3): > 750 µM (inactive)
GI50 (XF498): 50.6 µM (inactive)

Brc1ccc2[nH]c3c(C4=NCCC4)nccc3c2c1
GI50 (DMS-273): 14.4 µM (inactive)
GI50 (HCT-116): 9.86 µM (inactive)
GI50 (IGROV-1): 18.7 µM (inactive)
GI50 (KM-20L2): 8.17 µM (inactive)
GI50 (M19-MEL): 26.9 µM (inactive)
GI50 (NCI-H226): 10.2 µM (inactive)
GI50 (NCI-H522): 9.12 µM (inactive)
GI50 (RPMI-8226): 9.27 µM (inactive)
GI50 (SK-OV-3): 26.7 µM (inactive)
GI50 (SNB-78): > 100 µM (inactive)
GI50 (XF498): > 39.5 µM (inactive)

c1ccc2sc(SCN(C3CCCCC3)C3CCCCC3)nc2c1
GI50 (BT-549): > 100 µM (inactive)
GI50 (DU-145): > 100 µM (inactive)
GI50 (Hs-578T): > 100 µM (inactive)
GI50 (IGROV-1): > 100 µM (inactive)
GI50 (M14): > 100 µM (inactive)
GI50 (MDA-MB-435): > 100 µM (inactive)
GI50 (NCI-H226): > 100 µM (inactive)
GI50 (NCI-H522): > 100 µM (inactive)
GI50 (PC-3): > 100 µM (inactive)
GI50 (SR): > 100 µM (inactive)
GI50 (T47D): 15.1 µM (inactive)
GI50 (TK-10): > 100 µM (inactive)
